Measured values taken from article PMC1839166, “Type III Effector Activation via Nucleotide Binding, Phosphorylation, and Host Target Interaction” (PLoS Pathogens, 2007).

Target: T1, AvrB (Pseudomonas savastanoi, UniProt P13835)
T1 construct: recombinant in E. coli BL21 Rosetta from pProEX-HTa; N-terminal His tag removed with TEV protease; residues 16 to 319 modelled in the ADP complex; 36 kDa
Experiment: X-ray crystallography, crystal soak
Type: binding
Conditions: 5 mM nucleotide soak about 1 d, pH 7.5, with and without 5 mM MgCl2; lower lobe pocket (Y65, R99, R266)

T1 sequence (P13835 whole entry, the tested form may be a part): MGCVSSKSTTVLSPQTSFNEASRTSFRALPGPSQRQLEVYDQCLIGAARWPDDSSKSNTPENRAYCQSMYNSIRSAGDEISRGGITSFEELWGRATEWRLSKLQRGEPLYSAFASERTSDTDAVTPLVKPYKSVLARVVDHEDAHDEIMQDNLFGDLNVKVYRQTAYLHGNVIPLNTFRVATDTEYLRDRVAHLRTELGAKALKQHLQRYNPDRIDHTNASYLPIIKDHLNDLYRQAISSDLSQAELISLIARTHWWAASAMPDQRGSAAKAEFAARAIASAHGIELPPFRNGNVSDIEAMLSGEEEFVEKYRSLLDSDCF

Nc1ncnc2c1ncn2[C@@H]1O[C@H](COP(=O)(O)OP(=O)(O)O)[C@@H](O)[C@H]1O [ADP]
X-ray crystallography, crystal soak: We found that crystallized AvrB could bind ADP within the lower lobe pocket
